Patent US20040204577A1, “Novel peptide-forming enzyme gene” (Ajinomoto Co., Inc., priority 2003, published 2004)
Where a SMILES comes first, the peptide text is derived from it. [ ]: non-standard residue; d: D form.

Tests used:
[1] = system: microbial cells of Empedobacter brevis strain FERM BP-8113; assay: Production of peptide using microbial cells; assay type: cell-based; conditions: 1 mL cell suspension (100 g/L) + 1 mL buffer with 200 mM carboxy component (hydrochloride) and 400 mM amino acid; borate buffer pH 9.0, 10 mM EDTA; 18° C., 2 hours
Method: A 50 mL medium (pH 6.2) containing 5 grams (g) of glucose, 5 g of ammonium sulfate, 1 g of monopotassium phosphate, 3 g of dipotassium phosphate, 0.5 g of magnesium sulfate, 10 g of yeast extract and 10 g of peptone in 1 liter (L) was transferred to a 500 mL Sakaguchi flask and sterilized at 115° C. for 15 minutes. This medium was then inoculated with one loopful cells of Empedobacter brevis strain FERM BP-8113 (Depositary institution: the independent administrative corporation, National Institute of Advanced Industrial Science and Technology, International Patent Organism Depositary, Address of depositary institution: Chuo Dai-6, 1-1 Higashi 1-Chome, Tsukuba-shi, Ibaraki-ken, Japan, International deposit transfer date: Jul. 8, 2002) that had been cultured at 30° C. for 16 hours in the same medium, followed by shake culturing at 30° C. for 16 hours and 120 strokes/min.

[2] = system: peptide-forming enzyme (Mono S fraction enzyme); assay: Enzyme substrate specificity (1)-(10), (13), (14): peptide production; assay type: biochemical, Empedobacter brevis; conditions: pH 9.0, 25° C., 3 hours
In short: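 Mono S enzyme fraction in 100 mM borate buffer (pH 9.0) with 10 mM EDTA and 100 mM carboxy component (amino acid methyl esters or amides); amine components (L-glutamine, amino acids, amino acid amides or methylamine) at 150 mM, or 200 mM L-glutamine with varied esters. Reactions ran at 25° C for 2–3 hours; 0.1% Tween-80 added for Trp/Tyr-OMe.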

[3] = system: enzyme derived from Sphingobacterium sp. strain FERM BP-8124 (SP-Sepharose HP fraction enzyme); assay: Enzyme substrate specificity (11), (12): peptide production; assay type: biochemical; parameters: key to Produced peptide (Table 15-1) / Produced peptide (Table 15-3) / Produced peptide (Table 15-4): +: those peptides for which production was confirmed but which were unable to be quantified due to the absence of a standard; a trace amount; conditions: carboxy component 100 mM, 0.33 units enzyme, pH 9.0, 25° C., 1.5 hours; for Produced peptide (Table 15-4): amides and methylamine
Description: Substrate specificity was examined for enzyme derived from Sphingobacterium sp. strain FERM BP-8124 (Depositary institution: the independent administrative corporation, National Institute of Advanced Industrial Science and Technology, International Patent Organism Depositary, Address of depositary institution: Chuo Dai-6, 1-1 Higashi 1-Chome, Tsukuba-shi, Ibaraki-ken, Japan, International deposit date: […] The amounts of various peptides formed in this reaction are shown in Table 15. The “+” mark indicates those peptides for which production was confirmed but which were unable to be quantified due to the absence of a standard, while “tr” indicates a trace amount. Furthermore, Tween-80 was added to the reaction system to a final concentration of 0.1% in the case of using L-Tyr-OMe. In addition, hydrochloride salts were used for all carboxy components. Substrate specificity with respect to oligopeptide production was examined for enzyme derived from Sphingobacterium sp. strain FERM BP-8124 (Depositary institution: the independent administrative corporation, National Institute of Advanced Industrial Science and Technology, International Patent Organism Depositary, Address of depositary institution: Chuo Dai-6, 1-1 Higashi 1-Chome, Tsukuba-shi, Ibaraki-ken, Japan, International deposit date: […] The amounts of each oligopeptide formed in this reaction are shown in Table 16. Furthermore, hydrochloride salts were used for all the carboxy components.

[4] = system: peptide-forming enzyme (Mono S fraction enzyme); assay: Enzyme inhibitors: effects on the production of L-alanyl-L-glutamine; assay type: biochemical, Empedobacter brevis; conditions: for Relative activity of L-Ala-L-Gln production: inhibitor at 10 mM, borate buffer pH 9.0, 25° C., 5 minutes, 100 = absence of enzyme inhibitor
[5] = Comparison of ability to catalyze peptide formation with known enzymes; assay type: biochemical; conditions: for L-Ala-L-Gln production rate: 100 mM L-alanine methyl ester hydrochloride, 200 mM L-glutamine, pH 9.0, 25° C., enzyme added 0.02-3.60 protein mg/ml as in Table 14; for Ratio of L-Ala-L-Gln production rate per enzyme unit weight: enzyme of present invention = 100.0
Description: The enzyme homogeneously purified in Example 3 was used as a source of the present enzyme of the present invention.

[6] = 100 mM L-alanine methyl ester hydrochloride, L-amino acid 150 mM
[7] = L-amino acid amide hydrochloride as carboxy component 100 mM, L-amino acid 150 mM
[8] = L-amino acid methyl ester hydrochloride 100 mM, L-amino acid 150 mM

`CSCC[C@H](NC(=O)[C@H](C)N)C(=O)O` [L-Ala-L-Met] (H-Ala-Met-OH) gave a Formed peptide [1] of 68.3 mM, a Formed peptide [2, 6] of 83.3 mM and a Formed peptide [2, 7] of 3.4 mM. For the same molecule, the “Produced peptide (Table 15-4)” value ([3]; amine component 150 mM) was “tr” and the “Produced peptide (Table 15-1)” value ([3]; amine component 150 mM) was 86.9 mM.

For `N=C(N)Nc1ccc(C(=O)Oc2ccc([N+](=O)[O-])cc2)cc1` [p-Nitrophenyl-p′-guanidino benzoate, p-nitrophenyl-p′-guanidinobenzoate], the “Relative activity of L-Ala-L-Gln production” value [4] was 0.1% and the “Inhibition of the enzyme (in words)” value ([4]; serine enzyme inhibitors at 10 mM) was “inhibited”.

In the case of `C[C@H](N)C(=O)N[C@@H](CCCN=C(N)N)C(=O)O` [L-Ala-L-Arg] (H-Ala-Arg-OH), the Formed peptide [1] is reported as 72.1 mM, the Formed peptide [2, 6] is reported as 88.0 mM and the “Produced peptide (Table 15-1)” value ([3]; amine component 150 mM) is reported as 72.2 mM.

With `C[C@H](N)C(=O)N[C@@H](Cc1ccccc1)C(=O)O` [L-Ala-L-Phe] the Formed peptide [1] was 62.4 mM, the Formed peptide [2, 6] was 74.4 mM and the “Produced peptide (Table 15-1)” value ([3]; amine component 150 mM) was 69.5 mM.

In the case of `CC(C)C[C@H](NC(=O)[C@H](C)N)C(=O)O` [L-Ala-L-Leu] (H-Ala-Leu-OH), the Formed peptide [1] is reported as 38.2 mM, the Formed peptide [2, 6] is reported as 45.3 mM and the “Produced peptide (Table 15-1)” value ([3]; amine component 150 mM) is reported as 33.0 mM.

With `NCC(=O)N[C@@H](Cc1cnc[nH]1)C(=O)O` [Gly-L-His] (H-Gly-His-OH) the Formed peptide [1] was 22.1 mM, the Formed peptide [2, 8] was 31.6 mM and the “Produced peptide (Table 15-3)” value ([3]; amine component 150 mM) was 36.2 mM.

For `CSCC[C@H](N)C(=O)N[C@@H](Cc1ccccc1)C(=O)O` [L-Met-L-Phe] (H-Met-Phe-OH), the Formed peptide [1] was 28.5 mM and the “Produced peptide (Table 15-3)” value ([3]; amine component 150 mM) was 8.9 mM.

With `c1cnc2c(c1)ccc1cccnc12` [o-Phenanthroline, o-phenanthroline] the “Relative activity of L-Ala-L-Gln production” value [4] was 96%.

With `CSCC[C@H](NC(=O)[C@@H](N)C(C)C)C(=O)O` [L-Val-L-Met] (H-Val-Met-OH) the Formed peptide [1] was 10.5 mM, the Formed peptide [2, 8] was 10.3 mM and the “Produced peptide (Table 15-3)” value ([3]; amine component 150 mM) was 6.8 mM.

For `N[C@@H](CO)C(=O)N[C@@H](CO)C(=O)O` [L-Ser-L-Ser] (H-Ser-Ser-OH), the Formed peptide [1] was 29.0 mM, the Formed peptide [2, 8] was 38.0 mM and the “Produced peptide (Table 15-3)” value ([3]; amine component 150 mM) was 9.9 mM.

In the case of Bromelain, the L-Ala-L-Gln production rate [5] is reported as 0.0062 mM/min and the “Ratio of L-Ala-L-Gln production rate per enzyme unit weight” value (“Ratio … per enzyme unit weight” below) [5] is reported as 0.0010.

In the case of “Chymopapain: thiol endopeptidase described in EP 359399B1, purified enzyme manufactured by Sigma”, the L-Ala-L-Gln production rate [5] is reported as 0.0100 mM/min and the “Ratio … per enzyme unit weight” value [5] is reported as 0.0013.

For Ficin, the L-Ala-L-Gln production rate [5] was 0.0096 mM/min and the “Ratio … per enzyme unit weight” value [5] was 0.0017.

For `C[C@@H](O)[C@H](N)C(=O)NCC(=O)O` [L-Thr-Gly] (H-Thr-Gly-OH), the Formed peptide [2, 8] was 9.4 mM and the “Produced peptide (Table 15-3)” value ([3]; amine component 150 mM) was 0.4 mM.

For `NC(=O)CC[C@H](NC(=O)[C@@H](N)CCCN=C(N)N)C(=O)O` [L-Arg-L-Gln] (H-Arg-Gln-OH), the Formed peptide ([2]; L-amino acid methyl ester hydrochloride 100 mM, 150 mM L-glutamine) was 7.1 mM and the “Produced peptide (Table 15-2)” value ([3]; L-Gln 150 mM) was 17.2 mM.

For L-Ala-Gly-L-Ala, the Produced peptide ([2]; L-amino acid ester 100 mM, peptide (amine component) 150 mM) was 25.9 mM and the “Produced peptide (Table 16, oligopeptide)” value ([3]; amine component 150 mM) was 35.1 mM.

For `C[C@@H](N)C(=O)N[C@H](CO)C(=O)O` [D-Ala-D-Ser] (H-[dA]-[dS]-OH), the Formed peptide ([2]; L or D amino acid methyl ester hydrochloride 100 mM, L or D amino acid 150 mM) was 0.2 mM and the “Produced peptide (Table 15-1)” value ([3]; amine component 150 mM) was 5.5 mM.

In the case of `CC(C)C[C@H](NC(=O)[C@@H](N)[C@@H](C)O)C(=O)O` [L-Thr-L-Leu] (H-Thr-Leu-OH), the Formed peptide [1] is reported as 23.0 mM, the Formed peptide [2, 8] is reported as 28.4 mM and the “Produced peptide (Table 15-3)” value ([3]; amine component 150 mM) is reported as 15.3 mM.

With `C[C@H](N)C(=O)N[C@@H](CO)C(=O)O` [L-Ala-L-Ser] (H-Ala-Ser-OH) the Formed peptide [1] was 51.3 mM, the Formed peptide [2, 6] was 62.5 mM and the “Produced peptide (Table 15-1)” value ([3]; amine component 150 mM) was 43.8 mM.

Work on `C[C@H](N)C(=O)N[C@@H](Cc1cnc[nH]1)C(=O)O` [L-Ala-L-His] (H-Ala-His-OH) yielded a Formed peptide [1] of 52.1 mM, a Formed peptide [2, 6] of 66.9 mM and a Formed peptide [2, 7] of 3.9 mM. For the same molecule, the “Produced peptide (Table 15-4)” value ([3]; amine component 150 mM) was “tr” and the “Produced peptide (Table 15-1)” value ([3]; amine component 150 mM) was 73.6 mM.

With `CC(C)[C@H](NC(=O)[C@@H](N)[C@@H](C)O)C(=O)O` [L-Thr-L-Val] (H-Thr-Val-OH) the Formed peptide [2, 8] was 0.7 mM and the “Produced peptide (Table 15-3)” value ([3]; amine component 150 mM) was 1.3 mM.

For `CC(C)[C@H](NC(=O)[C@H](C)N)C(=O)O` [L-Ala-L-Val] (H-Ala-Val-OH), the Formed peptide [2, 6] was 20.8 mM and the “Produced peptide (Table 15-1)” value ([3]; amine component 150 mM) was 10.9 mM.

For `CC[C@H](C)[C@H](N)C(=O)N[C@@H](CCSC)C(=O)O` [L-Ile-L-Met] (H-Ile-Met-OH), the Formed peptide [1] was 8.3 mM, the Formed peptide [2, 8] was 10.0 mM and the “Produced peptide (Table 15-3)” value ([3]; amine component 150 mM) was 5.1 mM.

With `CNC(=O)[C@@H](N)[C@@H](C)O` [L-Thr-methylamine] the Formed peptide ([2]; amino acid methyl ester hydrochloride 100 mM, methylamine 150 mM) was 0.2 mM and the “Produced peptide (Table 15-4)” value ([3]; amine component 150 mM) was 0.3 mM.

In the case of `NCC(=O)N[C@@H](CO)C(=O)O` [Gly-L-Ser] (H-Gly-Ser-OH), the Formed peptide [2, 8] is reported as 44.2 mM and the “Produced peptide (Table 15-3)” value ([3]; amine component 150 mM) is reported as 53.8 mM.

For `CC[C@H](C)[C@H](NC(=O)[C@H](C)N)C(=O)O` [L-Ala-L-Ile] (H-Ala-Ile-OH), the Formed peptide [2, 6] was 33.9 mM and the “Produced peptide (Table 15-1)” value ([3]; amine component 150 mM) was 24.7 mM.

B1: Papain: thiol endopeptidase described in EP 359399B1, purified enzyme manufactured by Sigma (protein, UniProt P00784 134-345, looked up)
Papain: IPEYVDWRQKGAVTPVKNQGSCGSCWAFSAVVTIEGIIKIRTGNLNEYSEQELLDCDRRSYGCNGGYPWSALQLVAQYGIHYRNTYPYEGVQRYCRSREKGPYAAKTDGVRQVQPYNEGALLYSIANQPVSVVLEAAGKDFQLYRGGIFVGPCGNKVDHAVAAVGYGPNYILIKNSWGTGWGENGYIRIKRGTGNSYGVCGLYTSSFYPVKN
With B1 the L-Ala-L-Gln production rate [5] was 0.0106 mM/min and the “Ratio … per enzyme unit weight” value [5] was 0.0021.

B2: Carboxypeptidase Y: known enzyme described in EP 278787A1, purified enzyme manufactured by Sigma (protein, UniProt P00729 112-532, looked up)
Carboxypeptidase Y: KIKDPKILGIDPNVTQYTGYLDVEDEDKHFFFWTFESRNDPAKDPVILWLNGGPGCSSLTGLFFELGPSSIGPDLKPIGNPYSWNSNATVIFLDQPVNVGFSYSGSSGVSNTVAAGKDVYNFLELFFDQFPEYVNKGQDFHIAGESYAGHYIPVFASEILSHKDRNFNLTSVLIGNGLTDPLTQYNYYEPMACGEGGEPSVLPSEECSAMEDSLERCLGLIESCYDSQSVWSCVPATIYCNNAQLAPYQRTGRNVYDIRKDCEGGNLCYPTLQDIDDYLNQDYVKEAVGAEVDHYESCNFDINRNFLFAGDWMKPYHTAVTDLLNQDLPILVYAGDKDFICNWLGNKAWTDVLPWKYDEEFASQKVRNWTASITDEVAGEVKSYKHFTYLRVFNGGHMVPFDVPENALSMVNEWIHGGFSL
In the case of B2, the L-Ala-L-Gln production rate [5] is reported as 0.0257 mM/min and the “Ratio … per enzyme unit weight” value [5] is reported as 0.0191.
